Laboratory results reported in article PMC7915858, “Complementary Effects of Carbamylated and Citrullinated LL37 in Autoimmunity and Inflammation in Systemic Lupus Erythematosus” (International Journal of Molecular Sciences, 2021).

Key:
[1] = tested on: native LL37-P1-specific T-cells (HLA-DRB5*0101 tetramer); test: Peptide-MHC-tetramer staining of T-cells after PBMC stimulation; type: cell-based, human; conditions: 6 days stimulation, CD38hi CD4 T-cells; for Control (Ctr-B5) tetramer positive T-cells: Ctr-B5 tetr, lower panels Figure S6; for LL37-specific T-cells (LL37-B5 tetramer positive): LL37-B5 tetr, upper panels Figure S6
Protocol: Peptide-MHC-tetramers were from ImmunAware (Denmark). Staining was performed for 40 min with 1microL of tetramer suspension at 37 °C, followed by staining for CD4 (4 °C, 20 min), without washing. After incubation with anti-CD4 antibody, cells were washed, resuspended in PBS and kept at 4 °C. Before flow cytometry-acquisition, cells were labeled with PercP-conjugated 7-AAD to exclude dead cells. The peptide-MHC-tetramers used in this study are: the HLA-DR15-P1: tetramer of HLA-DRB1*1501 LLGDFFRKSKEKIGK (corresponding to the first aa at the NH2-term of the mature native LL37), (PE-conjugated) and the control peptide-MHC-tetramer called DR15-ctr: tetramer of HLA-DRB1*1501 […]1-169-185 (PE-conjugated). The other couple of peptide-MHC-tetramers used were HLA-DRB5*0101 loaded with the same LL37 epitope as above and the control tetramer HLA-DRB5*0101 loaded with the control epitope PVSKMRMATPLLMQA (CLIP-derived).

memory B-cells = test: Maturation of purified B-cells into plasma cells, flow cytometry; type: cell-based, human; conditions: 7 days; for Stimulation of B-cells to mature into plasma cells, peptide-DNA complex: peptide premixed with DNA (15 μg/mL), hrIL-2 50 UI/mL; for Plasma cells (CD38highCD27highCD19neg): hrIL-2 50UI/ml
Protocol: PBMCs were isolated by Ficoll-Paque centrifugation (as described above). Total B-cells were isolated by using the Human B-Cell Isolation Kit II, (Miltenyi Biotec, Bergisch Gladbach, Germany), from fresh PBMCs. The purity of B-cells was verified by flow cytometry using the monoclonal anti-human CD19 fluorescein isothiocyanate (FITC). The percentage of memory B-cells was assessed by flow cytometry using monoclonal anti-human CD19 fluorescein, anti-human CD27 allophycocyanin and anti-human CD38 Pacific Blue antibodies (BD Biosciences, San Jose, CA, USA). The majority of B-cells (>80%) were memory cells expressing CD19/CD27 and low CD38 [29].
LL37/cit-LL37/carb-LL37 were each premixed with DNA (15 μg/mL) and added to the B-cell cultures in RMPI 10% FCS, after a 15-min incubation at room temperature. At day 2, hrIL-2 at 50UI/mL was added to the cultures, which were kept in the incubator for 7 days.
Maturation of B-cells into plasma cells was investigated after 7 days culture by flow cytometry (Gallios, BeckmanCoulter, Brea, CA, USA) following surface staining with the following monoclonal antibodies: anti-human CD19 fluorescein-, CD27 allophycocyanin-, CD38 Pacific Blue-conjugated (BD Biosciences, CA, USA). Analysis of the FCS files was performed by FlowJo (BD, San Jose, CA, USA) or by Kaluza (Beckman Coulter, Indianapolis, IN, USA).

pDCs = test: IFN-α production by purified pDCs stimulated with peptide-DNA complexes; type: cell-based, human; conditions: 24 h, ELISA; for IFN-α response of pDCs to peptide alone: peptide without DNA
Protocol: Buffy-coats from HD were from Centro Trasfusionale, Policlinico Umberto I, Rome, IT. After separation of mononuclear cells by Ficoll centrifugation, pDCs were purified as described, by using the Diamond Plasmacytoid Dendritic Cell Isolation Kit (Miltenyi Biotec, Bergisch Gladbach, Germany) to obtain 99% purity. Purified pDCs were seeded into 96-well round-bottom plates at 3.5/5 × 10^4 cells per well in 200 μL RPMI 1640 (GIBCO), supplemented with 10% fetal calf serum (FCS), 1% Hepes and 1% sodium pyruvate. LL37, cit-LL37 and carb-LL37 were premixed with total human genomic DNA (extracted from PBMC of HD, see below) (15 μg/mL). After 15 min incubation at room temperature the mix was added to the pDC cultures. IFN-α in supernatants was measured by ELISA (MabTech, Stockholm, Sweden), after 24 h (according to the manufacturer’s instructions).
Human DNA was extracted from PBMCs, as reported and was fragmented by sonication. Five milligrams of DNA in a volume of 300 μL were fragmented using the Sonics Vibra Cell sonicator (Newtown, CT, USA), with the following settings: 2, 4 and 10 sonication cycles (30 s on, 30 s off, in ice) to obtain DNA fragment sizes between 100 and 1000 bp. The resulting size distribution was controlled by 2% agarose gel electrophoresis.

SLE CD4 T-cells = test: T-cell proliferation (BrdU incorporation, flow cytometry); type: cell-based, human; conditions: for SLE patients responding by T-cell proliferation: BrdU, positive if SI > 3, carb-LL37 8 of 25, native LL37 17 of 31, cit-LL37 16 of 31 SLE patients
Protocol: PBMCs were purified from EDTA-treated blood, on Ficoll-Hypaque (Pharmacia Fine Chemicals, Uppsala, Sweden) and were incubated (10^5 cells/well) in 96-well-flat-bottom-microplates (BD) in T-cell-medium (RPMI 1640, 10% heat-inactivated human serum, HS, Gibco), 2 mM L-glutamine, 10 U/mL penicillin and 100 μg/mL streptomycin), with/without peptides. We performed assays on fresh cells, within 1-to-3 h from collection or on PBMCs frozen in 90% FCS−10% DMSO, whose viability we assessed by Trypan blue exclusion, with an inverted microscope. Recovery of live cells was between 65 and 85% of the frozen number. At day 3 and 5, BrdU was added (1 μg/mL). BrdU-incorporation was detected by APC-labeled anti-BrdU antibody (BD Pharmingen), after surface staining for CD4, CD3, CD8 and analyzed by flow cytometry (Gallios, BeckmanCoulter, Brea, CA, USA). Internal control for T-cell viability and proliferation was PHA treatment (2 μg/mL). SI for proliferation was calculated by dividing percent of BrdU-staining in the presence of each peptide antigen (LL37, carb-LL37, cit-LL37, LL37 reverse, REV; cit-LL37 reverse, cit-REV; carb-LL37 reverse, carb-REV) by the percent obtained in the untreated cells. SI for proliferation was considered positive when the values of percent of BrdU positive cells was three times higher than the values obtained with the control peptides (SI > 3). Assays were repeated twice with each patient. In rare cases in which background proliferation (culture with REV, cit-REV, carb-REV), exceeded antigen-specific proliferation (that is response to LL37, carb-LL37, cit-LL37), the assay was repeated three times. Concomitant phenotype analysis of LL37-responder T-cells included staining for CD3, CD4, CD8, CXCR5 (CXCR5 was assessed on BrdU/CD3/CD4-positive cells).
Differences between mean values were assessed by Wilcoxon’s matched-pair signed rank test, to compare responses to antigens and control antigens in the same donor. We used Mann-Whitney test for comparison of T-cell and antibody responses between groups of patients and HD. Statistical significance was set at p < 0.05. Correlation analyses were performed by Spearman’s rank-correlation test. Data were analyzed by GraphPad Prism 7.0 or SPSS software.

[2] = Net charge of the peptides; type: physicochemical

Row | Substance | Control (Ctr-B5) tetramer positive T-cells [1] | LL37-specific T-cells (LL37-B5 tetramer positive) [1] | Stimulation of B-cells to mature into plasma cells, peptide-DNA complex (memory B-cells) | IFN-I/IFN-α production by pDCs, peptide-DNA complex (pDCs; peptide premixed with human DNA (15 μg/mL)) | IFN-α response of pDCs to peptide alone (pDCs) | SLE patients responding by T-cell proliferation (SLE CD4 T-cells) | Net charge [2] | Plasma cells (CD38highCD27highCD19neg) (memory B-cells; 10 µM peptide + DNA, Figure S9b) | Plasma cells (CD38highCD27highCD19neg) (memory B-cells; 10 µM peptide alone, Figure S9a) | Plasma cells (CD38highCD27highCD19neg) (memory B-cells; 20 µM peptide + DNA, Figure S9c) | Proliferation of SLE CD4 T-cells (SLE CD4 T-cells; BrdU incorporation, stimulation index, Wilcoxon's test) | BrdU-positive CD3+CD4+ T-cells (SLE CD4 T-cells; BrdU staining, representative zebra plot, Figure S5a) | Correlation of T-cell responses to carb-LL37 and native LL37 (SLE CD4 T-cells; SI, Spearman, Figure 3b) | Correlation of T-cell proliferation with SLEDAI or autoantibodies to LL37 (SLE CD4 T-cells; SI, Spearman, Figure 4a,b) | Antigen efficiency compared to cit-LL37 (SLE CD4 T-cells; SLE cohort analyzed)
1 | LLGDFFR(cit)KSKEKIGKEFKR(cit)IVQR(cit)IKDFLR(cit)NLVPR(cit)TES [cit-LL37, LL37 citrullinated at all five arginine sites] | 0.54% | 2.48% | abolishes the B-cell maturation into plasma cells | did not stimulate any IFN-I production by pDCs | no IFN-α response | 52% | +1 | – | – | – | – | – | – | – | –
2 | L*LGDFFRK*SK*EK*IGKEFK*RIVQRIK*DFLRNLVPRTES [carb-LL37] | 0.39% | 6.57% | maintained LL37 ability to stimulate the B-cells to mature into plasma cells | – | no IFN-α response | 32% | +1 | 14.73% | 7.27% | 28.09% | significant proliferation of SLE CD4 T-cells, although less efficiently than cit-LL37 | 18.3% | correlated moderately | moderate but significant correlation | less efficient antigen compared to cit-LL37
